“And” between values parts separate entries of the source, which are not always exact repeats. Identical values can stand only once.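 Five concentrations, 48 hours, 96-well plates. GI50 = concentration required for 50% inhibition of growth. TGI denotes the concentration required for complete inhibition of growth.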
Columns and labels:
Assay in all cases: NCI tumour cell line growth inhibition, 48 h
UACC-257 melanoma = system: UACC-257 melanoma
786-0 renal = system: 786-0 renal
SK-MEL-5 melanoma = system: SK-MEL-5 melanoma
RXF 393 renal = system: RXF 393 renal
ACHN renal = system: ACHN renal
SK-MEL-28 melanoma = system: SK-MEL-28 melanoma
SF-295 CNS = system: SF-295 CNS
NCI-H23 lung = system: NCI-H23 lung
RPMI-8226 leukemia = system: RPMI-8226 leukemia
NCI-H522 lung = system: NCI-H522 lung

| SMILES | GI50 (UACC-257 melanoma) | TGI (UACC-257 melanoma) | GI50 (786-0 renal) | TGI (786-0 renal) | GI50 (SK-MEL-5 melanoma) | TGI (SK-MEL-5 melanoma) | GI50 (RXF 393 renal) | TGI (RXF 393 renal) | GI50 (ACHN renal) | TGI (ACHN renal) | GI50 (SK-MEL-28 melanoma) | TGI (SK-MEL-28 melanoma) | GI50 (SF-295 CNS) | TGI (SF-295 CNS) | GI50 (NCI-H23 lung) | TGI (NCI-H23 lung) | GI50 (RPMI-8226 leukemia) | TGI (RPMI-8226 leukemia) | GI50 (NCI-H522 lung) | TGI (NCI-H522 lung) |
| --- | --- | --- | --- | --- | --- | --- | --- | --- | --- | --- | --- | --- | --- | --- | --- | --- | --- | --- | --- | --- |
| CC(C(=O)O)c1cccc(Oc2ccccc2)c1 (stereo not drawn) | > 100 µM | > 100 µM | > 100 µM | > 100 µM | > 100 µM | > 100 µM | > 100 µM | > 100 µM | > 100 µM | > 100 µM | > 100 µM | > 100 µM | > 100 µM | > 100 µM | > 100 µM | > 100 µM | > 100 µM | > 100 µM | > 100 µM | > 100 µM |
| O=[N+]([O-])c1cccc2ccc(N/N=C/c3ccccc3O)nc12 | > 100 µM | > 100 µM | > 100 µM | > 100 µM | > 100 µM | > 100 µM | 65.8 µM | > 100 µM | > 100 µM | > 100 µM | > 100 µM | > 100 µM | > 87.6 µM | > 100 µM | > 100 µM | > 100 µM | 0.027 µM | 3.12 µM | – | > 39.6 µM |
| Cc1ccc(Nc2oc(-c3ccccc3)nc2[P+](c2ccccc2)(c2ccccc2)c2ccccc2)cc1 | 0.718 µM | 2.75 µM | 1.1 µM | 2.45 µM | 0.493 µM | 1.4 µM | 0.864 µM | 2.34 µM | 0.988 µM | 2.76 µM | 1.19 µM | 2.55 µM | 1.24 µM | 2.6 µM | 0.458 µM | 2.08 µM | 0.243 µM | 0.639 µM | 0.45 µM | 1.79 µM |
| COC(=O)c1ccc2c(c1)/C(=C\c1cc(Br)c(O)c(Br)c1)C(=O)N2 | 4.24 µM | 15.5 µM | 10.1 µM | > 25 µM | 4.48 µM | > 16.5 µM | 6.06 µM | > 21.2 µM | 6.27 µM | > 25 µM | 3.96 µM | > 25 µM | 5.1 µM | > 24 µM | 7.22 µM | > 25 µM | 5.21 µM | > 25 µM | 4.73 µM | 19.3 µM |
| COC(=O)c1s/c(=N\C(=S)N(C)C)n(-c2ccc(Cl)cc2)c1C(=O)OC | – | > 100 µM | – | > 100 µM | – | > 10 µM | – | > 100 µM | – | > 100 µM | – | > 100 µM | – | > 100 µM | – | > 100 µM | – | > 100 µM | – | > 100 µM |
| O=C(NNc1ccccc1)C(=O)NNc1ccccc1 | > 100 µM | > 100 µM | 53.9 µM | > 100 µM | 10.8 µM | > 100 µM | > 100 µM | > 100 µM | 2.03 µM | > 100 µM | 58.1 µM | > 100 µM | 2.1 µM | > 100 µM | > 100 µM | > 100 µM | > 100 µM | > 100 µM | > 100 µM | > 100 µM |
| CCOC(=O)c1c(-c2ccc(OC)cc2)c(C#N)c2c(C#N)c(N)nn2c1N | 8.18 µM | > 100 µM | 3.85 µM | 23.3 µM | 1.78 µM | 4.41 µM | 2.25 µM | 11.5 µM | 4.02 µM | 48.5 µM | 5.41 µM | > 100 µM | 2.98 µM | 32.9 µM | 4.69 µM | > 100 µM | 2.31 µM | > 100 µM | 2.55 µM | 12.5 µM |
| CN(C)C/C=C/C(=O)Nc1cc2c(Nc3ccc(F)c(Cl)c3)ncnc2cc1O[C@H]1CCOC1 | 1.46 µM and 3.34 µM | 3.09 µM and > 10 µM | 2.3 µM and 1.79 µM | 13.9 µM and > 10 µM | 1.31 µM and 2.11 µM | 2.75 µM and > 5.59 µM | 1.17 µM and 0.514 µM | 6.79 µM and 4.13 µM | < 0.01 µM and 0.00252 µM | 13.1 µM and > 10 µM | 2.29 µM and 2.45 µM | 6.8 µM and > 10 µM | 4.93 µM and 3.32 µM | 20.9 µM and > 10 µM | 1.96 µM and 2.49 µM | 8.66 µM and > 10 µM | 1.76 µM and 2.14 µM | 5.39 µM and > 6.56 µM | 0.0189 µM and 0.00532 µM | 1.15 µM and 2.74 µM |
| CC12CCC3c4ccc(O)cc4CCC3C1C/C(=N\O)C2O (stereo not drawn) | – | > 100 µM | – | > 100 µM | – | > 100 µM | – | > 100 µM | – | > 100 µM | – | > 100 µM | – | > 100 µM | – | > 100 µM | – | > 100 µM | – | > 100 µM |
| COc1ccc(-c2nsc3c2NC(=O)CC3c2cccc(OC)c2)cc1 (stereo not drawn) | 12.9 µM | > 100 µM | 12.5 µM | > 100 µM | 0.445 µM | 17.5 µM | 2.29 µM | 8.95 µM | 4.87 µM | > 100 µM | 10.7 µM | > 100 µM | 1.54 µM | 12.4 µM | 2.59 µM | > 100 µM | 1.61 µM | > 100 µM | 0.702 µM | 5.28 µM |
| C=COC(=O)N[C@H]1CCc2cc(OC)c(OC)c(OC)c2-c2ccc(SC)c(=O)cc21 | – | 77.7 µM | – | 50.8 µM | – | 0.097 µM | – | 3.14 µM | – | 64.9 µM | – | > 96.3 µM | – | 0.0769 µM | – | 12.1 µM | – | 52.1 µM | – | < 0.01 µM |
| Cc1ccc2c(C3C(C#N)=C(N)Oc4cc5ccccc5cc43)cc(=O)oc2c1 (stereo not drawn) | 24.5 µM | > 100 µM | 1.83 µM | > 100 µM | 0.856 µM | 19.9 µM | 0.671 µM | 6.11 µM | 4.54 µM | > 100 µM | 12.3 µM | > 100 µM | 0.533 µM | > 100 µM | 6.06 µM | > 100 µM | 3.23 µM | 30.2 µM | 0.446 µM | 11.6 µM |
| C=CCc1ccc(O)c(-c2ccc(O)c(CC=C)c2)c1 | 17.1 µM | 40.6 µM | 16.8 µM | 33.5 µM | 10.8 µM | 23.4 µM | 18.9 µM | 47.3 µM | 15.8 µM | 30.6 µM | 16.6 µM | 31 µM | 19.6 µM | 44.7 µM | 16.3 µM | 34.4 µM | 14.6 µM | > 55.9 µM | 10.4 µM | 26.2 µM |
| CN(C)c1ccc(N=Nc2ccccn2)c(O)c1 | 1.24 µM | 9.04 µM | 0.246 µM | 15.9 µM | 0.433 µM | 3.35 µM | 0.229 µM | 0.929 µM | 0.271 µM | > 100 µM | 0.672 µM | > 100 µM | 0.359 µM | > 100 µM | 0.564 µM | > 100 µM | 0.348 µM | > 100 µM | 0.372 µM | – |
| CCc1ccc(/C=C/c2ccc(O)c3ncccc23)[n+](C)c1 | 16.9 µM | > 100 µM | > 100 µM | > 100 µM | 3.55 µM | > 100 µM | > 100 µM | > 100 µM | > 61.1 µM | > 100 µM | 76.2 µM | > 100 µM | 1.88 µM | > 100 µM | 4.2 µM | > 100 µM | 3.08 µM | > 100 µM | 2.3 µM | > 100 µM |
| C[C@@]12CCC[C@@](C)(C(=O)O)C1CC[C@]13CC(=O)[C@](CO)(C1)[C@@H](O)CC32 (stereo partly drawn) | > 100 µM | > 100 µM | > 100 µM | > 100 µM | > 100 µM | > 100 µM | > 100 µM | > 100 µM | > 100 µM | > 100 µM | > 100 µM | > 100 µM | > 100 µM | > 100 µM | > 100 µM | > 100 µM | > 100 µM | > 100 µM | > 100 µM | > 100 µM |
| Nc1c(C(=O)c2ccccc2)cnn1-c1ccc(F)cc1 | > 25 µM | > 25 µM | > 25 µM | > 25 µM | > 25 µM | > 25 µM | > 25 µM | > 25 µM | > 25 µM | > 25 µM | > 25 µM | > 25 µM | > 25 µM | > 25 µM | > 25 µM | > 25 µM | > 25 µM | > 25 µM | > 25 µM | > 25 µM |
